Measurements reported in PubChem BioAssay AID2060509 (Molecular Pharmacology Branch, DTP, NCI, 2025).
“And” between values parts separate entries of the source, which are not always exact repeats. Equal entries are not always repeated.

Test system: 485176-168-R4-J1-PDC spheroids with HUVEC/MSC, viability
Assay: Anticancer human tumor 485176-168-R4-J1-PDC patient-derived pancreatic adenocarcinoma cell line growth inhibition [GQUAD]
Settings: for viability, T/C: stronger effect = lower value
Text: DNA G-quadruplex Stabilizer Agents in Combinations in Complex Spheroids
A high-throughput screen of multi-cell type tumor spheroids was designed to identify active combinations of DNA G-quadruplex stabilizer agents and targeted small molecules. Complex spheroids include a stromal component modeled by human endothelial cells (HUVEC) and fibroblasts modeled by human mesenchymal stem cells (MSCs). The concentration ranges selected for each drug and investigational agent were based upon clinically achievable concentrations if the clinical Cmax of the agent was known.
Compounds. The drugs and investigational agents: pidnarulex (CX-5461; NSC782164), APTO-253 (NSC789042), BRACO-19 (NSC847499), peposertib (NSC802822), ceralasertib (NSC780249), elimusertib (NSC800525), camonsertib (NSC841442), AZD-1390 (NSC803789), olaparib (NSC753686), talazoparib (NSC767125), ART-558 (NSC835418), sotorasib (NSC818433), MRTX-1133 (NSC836407), SN-38 (NSC673596), topotecan (NSC609699), etoposide (NSC141540), doxorubicin (NSC123127), gemcitabine (NSC613327), 5-fluorouracil (NSC19893), paclitaxel (NSC125973), vemurafenib (NSC761431), panobinostat (NSC761190), R-306465 (JNJ-16241199; NSC773264), adavosertib (NSC754352), TP-3654 (NSC805149), carboplatin (NSC241240), KSQ-4279 (NSC840948), and staurosporine (NSC755774) were obtained from the National Cancer Institute (NCI) Developmental Therapeutics Program Chemical Repository (34). The FDA-approved anticancer drug set is available from the NCI Developmental Therapeutics Program. […] The stock solutions were prepared in dimethyl sulfoxide (DMSO, Sigma-Aldrich, St. Louis, MO, cat. D2650) at 800-fold the tested concentration and stored at -70 degrees C prior to their use. All drugs and investigational agents were tested over a range starting from a high concentration at or near the clinical Cmax and decreasing in half-log increments. If the clinical Cmax for an agent had not been determined, the highest concentration tested was 10 microM.
2.3 Cell Culture. All cells were maintained in an incubator at 37 degrees C and 5% CO2 with 95% humidity. The PDC lines were cultured according to standard operating procedures established by the NCI PDMR. All PDCs were thawed and cultured in Matrigel-coated flasks prepared with a working solution of 1X Ham's F-12 nutrient mix, without supplementation (Invitrogen, cat. 11765054), 100 U/mL penicillin-streptomycin (Invitrogen, cat. 15140122), and 2.5% Matrigel (Corning Inc., cat. 354248) for the first three passages. The 857933-349-R-J2-PDC line was cultured in 6C/Colon 1B media, which includes advanced DMEM/F-12 (Thermo Fisher Scientific, cat. 12634028), 10 mM HEPES (Thermo Fisher Scientific, cat. 15630080), 1X GlutaMAX supplement (Thermo Fisher Scientific, cat. 35050061), 0.1 mg/mL primocin (InvivoGen, cat. ant-pm-2), 10% defined fetal bovine serum, heat inactivated (HyClone Laboratories Inc., cat. SH30070.03HI), 50% L-WRN conditioned media (ATCC, cat. CRL-3276), 1.25 mM N-Acetyl-L-cysteine (Sigma-Aldrich, cat. A9165), 10 mM nicotinamide (Sigma-Aldrich, cat. N0636), 1X B-27 supplement (Thermo Fisher Scientific, cat. 17504044), 1X N-2 supplement (Thermo Fisher Scientific, cat. 17502048), 10 microM Y-27632 dihydrochloride (Tocris Bioscience, cat. 1254), and 50 ng/mL human EGF recombinant protein (Thermo Fisher Scientific, cat. PHG0311). The 485176-168-R4-J1-PDC line was cultured in Panc media, which includes all 6C/Colon 1B media components plus 100 ng/mL human FGF-10 (Thermo Fisher Scientific, cat. 100-26), 500 nM SB-431542 (Selleckchem, cat. S1067), and gastrin (Tocris, cat. 3006).
[…]

[1] = curve of first compound, second compound 0.0316 µM
[2] = curve of first compound, second compound 0.1 µM
[3] = curve of first compound, second compound 0.316 µM
[4] = curve of first compound, second compound 1 µM
[5] = curve of first compound, second compound 3.16 µM
[6] = curve of first compound, second compound 10 µM
[7] = second compound 0.0316 µM, first compound 0.0316 µM
[8] = second compound 0.0316 µM, first compound 0.1 µM
[9] = second compound 0.0316 µM, first compound 0.316 µM
[10] = second compound 0.0316 µM, first compound 1 µM
[11] = second compound 0.0316 µM, first compound 3.16 µM
[12] = second compound 0.0316 µM, first compound 10 µM
[13] = second compound 0.1 µM, first compound 0.0316 µM
[14] = second compound 0.1 µM, first compound 0.1 µM
[15] = second compound 0.1 µM, first compound 0.316 µM
[16] = second compound 0.1 µM, first compound 1 µM
[17] = second compound 0.1 µM, first compound 3.16 µM
[18] = second compound 0.1 µM, first compound 10 µM
[19] = second compound 0.316 µM, first compound 0.0316 µM
[20] = second compound 0.316 µM, first compound 0.1 µM
[21] = second compound 0.316 µM, first compound 0.316 µM
[22] = second compound 0.316 µM, first compound 1 µM
[23] = second compound 0.316 µM, first compound 3.16 µM
[24] = second compound 0.316 µM, first compound 10 µM
[25] = second compound 1 µM, first compound 0.0316 µM
[26] = second compound 1 µM, first compound 0.1 µM
[27] = second compound 1 µM, first compound 0.316 µM
[28] = second compound 1 µM, first compound 1 µM
[29] = second compound 1 µM, first compound 3.16 µM
[30] = second compound 1 µM, first compound 10 µM
[31] = second compound 3.16 µM, first compound 0.0316 µM
[32] = second compound 3.16 µM, first compound 0.1 µM
[33] = second compound 3.16 µM, first compound 0.316 µM
[34] = second compound 3.16 µM, first compound 1 µM
[35] = second compound 3.16 µM, first compound 3.16 µM
[36] = second compound 3.16 µM, first compound 10 µM
[37] = second compound 10 µM, first compound 0.0316 µM
[38] = second compound 10 µM, first compound 0.1 µM
[39] = second compound 10 µM, first compound 0.316 µM
[40] = second compound 10 µM, first compound 1 µM
[41] = second compound 10 µM, first compound 3.16 µM
[42] = second compound 10 µM, first compound 10 µM
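Note: spheroids exposed to compounds for seven days before readout.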
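Throughout, for viability, T/C: percent viability relative to DMSO vehicle control wells as 100%.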

O=C(c1cc(Cc2n[nH]c(=O)c3ccccc23)ccc1F)N1CCN(C(=O)C2CC2)CC1 + CN(C)c1ccc(Nc2c3ccc(NC(=O)CCN4CCCC4)cc3nc3cc(NC(=O)CCN4CCCC4)ccc23)cc1 showed an IC50 [1] greater than 10 µM, an IC50 [2] greater than 10 µM and an IC50 [3] greater than 10 µM. It also gave an IC50 [4] greater than 10 µM, an IC50 [5] greater than 10 µM and an IC50 [6] greater than 10 µM. The viability, T/C [7] was 90.6%, the viability, T/C [8] was 92.6% and the viability, T/C [9] was 103%. The viability, T/C [10] was 103%, the viability, T/C [11] was 111% and the viability, T/C [12] was 79.3%. The viability, T/C [13] was 96.3%, the viability, T/C [14] was 98.7% and the viability, T/C [15] was 102%. For the same molecule, the viability, T/C [16] was 91.2%, the viability, T/C [17] was 86.5% and the viability, T/C [18] was 72.5%. The viability, T/C [19] was 84.7%, the viability, T/C [20] was 90.8% and the viability, T/C [21] was 91.2%. It also gave a viability, T/C [22] of 95.3%, a viability, T/C [23] of 105% and a viability, T/C [24] of 81.5%. The viability, T/C [25] was 107%, the viability, T/C [26] was 91.5% and the viability, T/C [27] was 90%. The viability, T/C [28] was 86.4%, the viability, T/C [29] was 89.4% and the viability, T/C [30] was 73.6%. The viability, T/C [31] was 96.9%, the viability, T/C [32] was 93.7% and the viability, T/C [33] was 89.9%. For the same molecule, the viability, T/C [34] was 90.8%, the viability, T/C [35] was 95.4% and the viability, T/C [36] was 68.4%. The viability, T/C [37] was 94.7%, the viability, T/C [38] was 89.9% and the viability, T/C [39] was 77.4%. The viability, T/C [40] was 85.8%, the viability, T/C [41] was 84.7% and the viability, T/C [42] was 59.7%.
For COc1cccc2c1C(=O)c1c(O)c3c(c(O)c1C2=O)CC(O)(C(=O)CO)CC3OC1CC(N)C(O)C(C)O1 (stereo not given), the viability, T/C (compound 0.0316 µM) was 94.5% and 91.5% and 81.9%, the viability, T/C (compound 0.1 µM) was 59.7% and 68.6% and 56.4% and the viability, T/C (compound 0.316 µM) was 51.7% and 52.9% and 48.3%. For the same molecule, the viability, T/C (compound 1 µM) was 16% and 16.9% and 15.1%, the viability, T/C (compound 3.16 µM) was 4.15% and 1.93% and 4.74% and the viability, T/C (compound 10 µM) was 0.3% and 0.31% and 0.43%. The IC50 (curve of compound) was 0.215 µM and 0.283 µM and 0.193 µM.
In the case of O=C(c1cc(Cc2n[nH]c(=O)c3ccccc23)ccc1F)N1CCN(C(=O)C2CC2)CC1 + Cc1cnc(CNC(=O)c2c(=O)c3ccc(N4CCCN(C)CC4)nc3n3c2sc2ccccc23)cn1, the IC50 [1] is reported as greater than 10 µM, the IC50 [2] is reported as greater than 10 µM and the IC50 [3] is reported as greater than 10 µM. The IC50 [4] was less than 0.0316 µM, the IC50 [5] was less than 0.0316 µM and the IC50 [6] was less than 0.0316 µM. The viability, T/C [7] was 92.7%, the viability, T/C [8] was 74.2% and the viability, T/C [9] was 85.1%. The viability, T/C [10] was 71%, the viability, T/C [11] was 68.4% and the viability, T/C [12] was 75.7%. For the same molecule, the viability, T/C [13] was 63.5%, the viability, T/C [14] was 75.8% and the viability, T/C [15] was 63.4%. It also gave a viability, T/C [16] of 64.4%, a viability, T/C [17] of 75.8% and a viability, T/C [18] of 59.2%. It also gave a viability, T/C [19] of 57.2%, a viability, T/C [20] of 52.8% and a viability, T/C [21] of 60.7%. It also gave a viability, T/C [22] of 59.2%, a viability, T/C [23] of 54.2% and a viability, T/C [24] of 45.6%. For the same molecule, the viability, T/C [25] was 44.8%, the viability, T/C [26] was 43.7% and the viability, T/C [27] was 52.6%. It also gave a viability, T/C [28] of 42.6%, a viability, T/C [29] of 48.4% and a viability, T/C [30] of 42.6%. The viability, T/C [31] was 47.4%, the viability, T/C [32] was 43.7% and the viability, T/C [33] was 38.4%. For the same molecule, the viability, T/C [34] was 38.6%, the viability, T/C [35] was 41.6% and the viability, T/C [36] was 35.8%. The viability, T/C [37] was 43.5%, the viability, T/C [38] was 39.7% and the viability, T/C [39] was 42.1%. It also gave a viability, T/C [40] of 38.4%, a viability, T/C [41] of 35.6% and a viability, T/C [42] of 35.4%.
For O=C(c1cc(Cc2n[nH]c(=O)c3ccccc23)ccc1F)N1CCN(C(=O)C2CC2)CC1, the viability, T/C (compound 0.0316 µM) was 94.9% and 101% and 98%, the viability, T/C (compound 0.1 µM) was 100% and 97.5% and 90.3% and the viability, T/C (compound 0.316 µM) was 84.3% and 99.6% and 85.8%. For the same molecule, the viability, T/C (compound 1 µM) was 89.3% and 98.4% and 81.9%, the viability, T/C (compound 3.16 µM) was 85.7% and 102% and 88.1% and the viability, T/C (compound 10 µM) was 80% and 77.6% and 68.8%. The IC50 (curve of compound) was greater than 10 µM.
C#Cc1c(F)ccc2cc(O)cc(-c3ncc4c(N5CC6CCC(C5)N6)nc(OCC56CCCN5CC(F)C6)nc4c3F)c12 (stereo not given) was tested, and the viability, T/C (compound 0.0316 µM) was 95.2% and 109% and 105%, the viability, T/C (compound 0.1 µM) was 89% and 86.3% and 108% and the viability, T/C (compound 0.316 µM) was 92.7% and 88.4% and 95.7%. The viability, T/C (compound 1 µM) was 89.8% and 104% and 109%, the viability, T/C (compound 3.16 µM) was 104% and 96.4% and 97.2% and the viability, T/C (compound 10 µM) was 95.4% and 93.5% and 104%. It also gave an IC50 (curve of compound) greater than 10 µM.
